The results in this text go back to patent US10538571B2, “Compositions and methods for neurological diseases” (Coda Biotherapeutics, Inc., priority 2017, dated 2020).

Test [1] has as its target T1, engineered chimeric LGIC receptor SEQ ID NO:41 (as SEQ ID NO:33, further comprising the β1-β2 loop domain from GlyRα1) (Homo sapiens, UniProt P36544, F159M/H163T/I152M/K68T/N69T/Q70M/R155K/V154L/W156N/Y151P).
T1 construct: expressed in transfected cells; host or cells: Xenopus oocytes (cDNA injection)
Nature of the test: Two electrode voltage clamp currents in Xenopus oocytes expressing the receptor. The class given is cell-based. As to conditions: FIG. 5. As for the experimental part:
(§1) For Xenopus oocyte studies, injections of cDNAs encoding for ion channels at a final concentration of 0.04 μg/μL were performed using a proprietary automated injection device and receptor expression examined at least two days later. Oocytes were poked with two electrodes and their membrane potential maintained at −80 mV throughout the experiment. All recordings were performed at 18° C. and cells were superfused with OR2 medium containing in mM: NaCl 82.5, KCl 2.5, HEPES 5, CaCl2.2H2O 1.8, MgCl2.6H2O 1, pH 7.4. Recordings progressed if oocytes had sufficiently low holding current, in which case they were then subjected to ligand or test compound application (5-10 s wash intervals), with 100 s of wash in between doses. Currents evoked by acetylcholine or other agonists were recorded using an automated process equipped with standard two electrode voltage clamp configuration (TEVC). Data were captured and analyzed using HiQScreen proprietary data acquisition and analysis software running under Matlab (Mathworks Inc.). Acetylcholine was prepared as a concentrated stock solution (10-1 M) in water and then diluted in the recording medium to obtain the desired test concentration. Nicotine was diluted in water as stock solution (10-1 M), kept frozen and diluted immediately prior to the experiment at the desired concentration. Compounds were prepared as stock solution (10-1M) in OR2 and then diluted in the recording medium to obtain the desired test concentration. Stock solution for Compound-1 was made in OR2 at pH 5 adjusted with HCl. To assess that dilution at the final concentration of this stock solution introduced no significant changes, the pH of the final solution was confirmed using a colorimetric assay (Galietta L. J. V., et al. 2001. FEBS Letters 499: 220-224. Kruger W., et al. (2005). Neuroscience Letters 380: 340-345.)
(§2) To better understand the impact of the heterologous domains that had been inserted into the channels, the ligand-dependent response profiles of wild type α7-nAChR and various engineered chimeric LGIC receptors to acetylcholine as well as to non-native ligands TC-6987, AZD-0328, and Facinicline/RG3487 were assessed. Receptors were transiently expressed in […] cells and currents were measured on an automated patch clamp system (Fluxion Biosciences) following 1 second addition of drug. Inclusion of a GlyRα1 Cys-loop sequence in the extracellular domain increased the potency of all small molecules on the engineered receptor (leftward shift in EC50) (e.g. SEQ ID NO:35, FIG. 4C vs SEQ ID NO:16, FIG. 4B). […] Inclusion of both the Cys-loop and β1-β2 loop sequences of GlyRα1 in the extracellular domain reduced the sensitivity by about 1 log from that observed with the full Cys-loop sequence alone, but further increased conductance approximately 2-fold and slowed the rate of deactivation of the channel (SEQ ID NO:41, FIG. 4E vs. SEQ ID NO:33, FIG. 4D).
In general terms: Two-electrode voltage clamp is typically applied to oocytes expressing channels or transporters.

The target of test [2] is T2, engineered chimeric LGIC receptor SEQ ID NO:33 (α7-nAChR ligand binding domain with GlyRα1 Cys-loop, GlyRα1 ion pore domain) (Homo sapiens, UniProt P36544, F159M/H163T/I152M/R155K/V154L/W156N/Y151P).
T2 construct: expressed in transfected cells; host or cells: Xenopus oocytes (cDNA injection)
T2 sequence (P36544 with tags, fused parts or gaps Y151P/I152M/V154L/R155K/W156N/F159M/H163T): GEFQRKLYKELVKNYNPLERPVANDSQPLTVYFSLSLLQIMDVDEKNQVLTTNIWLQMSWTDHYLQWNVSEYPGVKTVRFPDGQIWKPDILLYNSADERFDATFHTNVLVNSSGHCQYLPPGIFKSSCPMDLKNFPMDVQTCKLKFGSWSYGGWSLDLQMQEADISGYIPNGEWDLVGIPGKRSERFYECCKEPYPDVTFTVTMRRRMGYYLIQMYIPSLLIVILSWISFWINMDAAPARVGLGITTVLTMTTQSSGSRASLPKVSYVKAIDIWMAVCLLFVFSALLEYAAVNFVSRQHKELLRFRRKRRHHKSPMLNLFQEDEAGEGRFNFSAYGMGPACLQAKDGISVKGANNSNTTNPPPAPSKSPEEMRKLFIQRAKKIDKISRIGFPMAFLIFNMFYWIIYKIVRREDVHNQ
The test is described as above. It is filed as cell-based. The method, then:
as §1, §2

In test [3] the test system is spared nerve injury (SNI) model. In words: Spared nerve injury (SNI) model of neuropathic pain, mechanical withdrawal threshold (von Frey, up-down method) after AAV.hSYN-α7-nAChR/GlyRα1 injection. The class given is in vivo, rat. The following applies: single IP injection. The text has this: Eight expression cassettes are constructed using standard molecular biology techniques. All contain a human synapsin-1 (hSYN) promoter linked to engineered chimeric receptors comprising a ligand binding domain of α7-nAChR and a Cys-loop domain and ion pore domain of GlyRα1. Their design is as follows:
These cassettes are subcloned into AAV bacmids, purified, transfected into Sf9 insect cells to produce recombinant bacuvlovirus, and then amplified. Sf9 cells are double infected using the amplified recombinant baculovirus containing the hSYN-α7-nAChR/GlyRα1 cassettes and another recombinant baculovirus containing the Rep and AAV6(Y705+731F+T492V) Cap genes to produce recombinant AAV vectors. The viral vectors are purified, viral titer determined using qPCR, and SDS-PAGE used to verify the purity of AAV vectors.
To produce mechanical hypersensitivity in a model that mimics a neuropathic pain condition, the spared nerve injury (SNI) model (a validated model of mechanical allodynia) is used (Shields et al., 2003, The Journal of Pain, 4, 465-470). This model is produced by the sectioning of the common peroneal and the sural nerves and isolating the tibial branch. Mechanical withdrawal threshold is assessed by placing rats on an elevated wire-mesh grid and stimulating the plantar surface of the hind paw with von Frey filaments.
A dorsal hemilaminectomy is made at the level of the lumbar enlargement to expose two segments (about 1.5-2 mm) of lumbar spinal cord, after which the dura mater is incised and reflected. The viral solution is loaded into a glass micropipette (prefilled with mineral oil). The micropipette is connected to a manual micro-injector mounted on a stereotactic apparatus. The viral solution is targeted to the dorsal horn (left side). Along the rostro-caudal axis within the exposed region, 6 injections of 240 nl each are performed, in an equidistant linear fashion. After each injection, 1 min of resting time is observed and then the muscle layer is sutured, the skin closed with staples, and the animals were allowed to recover with heated-pad before they were returned to their home cages. Animals are perfused for histological analysis after the last behavior test.
The injection is performed with a borosilicate glass capillary (0.78/1 mm internal/external diameters) pulled to a fine point, attached by polyethylene tubing (0.4/0.8 mm internal/external diameters) to a syringe mounted in a microinjection pump. The needle is mounted on an extended arm of a stereotaxic frame swung to the outside (used to hold and manipulate the needle only). Tubing, syringe, and needle are all filled with water. One microliter air is taken up into the needle followed by 3 μL of the viral vector solution. The needle is loaded separately with this volume for each injection. Animals are anesthetized prior to surgery. Following an incision along the dorsal midline, the L4 and L5 DRG are exposed by removal of the lateral processes of the vertebrae. The epineurium lying over the DRG is opened, and the glass needle inserted into the ganglion, to a depth of 400 μm from the surface of the exposed ganglion. After a 3-minute delay to allow sealing of the tissue around the glass capillary tip, 1.1 μL virus solution was injected at a rate of 0.2 μL/minute. After a further delay of 2 minutes, the needle is removed. The L4 ganglion is injected first followed by the L5 ganglion. The muscles overlying the spinal cord are loosely sutured together with a 5-0 suture and the wound closed. Animals are allowed to recover at 37° C. and received postoperative analgesia.
Rats are first anesthetized and then placed vertically with their head fixed in a stereotaxic frame. An incision is made in the base of the neck to expose the groove in the nuchal crest. An incision is made (1-2 mm) in the cisternal membrane to a depth such that cerebrospinal fluid leaks out. […]

T1 sequence (P36544 with tags, fused parts or gaps K68T/N69T/Q70M/Y151P/I152M/V154L/R155K/W156N/F159M/H163T): as the sequence (P36544 with tags, fused parts or gaps Y151P/I152M/V154L/R155K/W156N/F159M/H163T) above, with K46T, N47T, Q48M counted along it

For `c1ccc(-c2nnc(O[C@@H]3C4CC5C[C@H]3CN(C5)C4)s2)cc1` [ABT-126], in test [1], the “sensitivity of SEQ ID NO:41 to ligand compared with wild type α7-nAChR” value was “comparably sensitive”. Besides, the “sensitivity of SEQ ID NO:33 to ligand compared with wild type α7-nAChR” value in test [2] (Xenopus oocytes, FIG. 5) is given as “approximately as sensitive”.

`O=C(N[C@@H]1C2CCN(CC2)[C@H]1Cc1cccnc1)c1cc(F)cc(F)c1` [TC-6987]: in test [1], the “sensitivity of SEQ ID NO:41 to ligand compared with wild type α7-nAChR” value was “comparably sensitive”. In test [2] (Xenopus oocytes, FIG. 5), the “sensitivity of SEQ ID NO:33 to ligand compared with wild type α7-nAChR” value was “approximately as sensitive”. In addition, in test [2] (similar to wild type), the “agonist activity on SEQ ID NO:33” value is “partial agonist activity”.

Turning to `O=C(N[C@@H]1CN2CCC1CC2)c1n[nH]c2ccccc12` [Facinicline/RG3487], the “reversal of mechanical hypersensitivity” value is on record as “complete reversal” in test [3] (high dose of ligand, all rats (Chimera 1-8)); “complete reversal” in test [3] (low dose, rats receiving Chimera 1, 2, 4, 5, 6 and 8); “partial reversal” in test [3] (low dose, rats receiving Chimera 3 and 7). The “EC50 on SEQ ID NO:41 fold lower (left shifted) than for wild type” value in test [1] is given as “approximately 2 fold”. Besides, the “sensitivity of SEQ ID NO:41 compared with SEQ ID NO:33” value in test [1] is listed as “less sensitive”. For the same molecule, the “fold more sensitive than wild type α7-nAChR” value in test [2] (Xenopus oocytes, FIG. 5) is listed as about 10 fold.

With `CN1CCCC1c1cccnc1` (stereo not shown) [nicotine], in test [1], the “EC50 on SEQ ID NO:41 fold larger (right shifted) than for wild type” value is listed as about 7 fold. Further, the “fold less sensitive than wild type α7-nAChR” value in test [2] (Xenopus oocytes, FIG. 5) is “approximately 2 fold”.
